From patent US10780090B2, “Heteroaryl compounds useful as inhibitors of SUMO activating enzyme” (Millennium Pharmaceuticals, Inc., priority 2014, dated 2020)

Biological target: recombinant human SAE enzyme (Homo sapiens (Human), UniProt Q9UBT2)
Assay: SAE HTRF enzyme assay
Type: biochemical
Settings: for inhibition at 0.111 µM: read-out: Percent Inhibition
In short: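 0.11 nM SAE incubated with 0.5 μM ATP, 0.01 μM Ubc9-GST and 0.125 μM Sumo-Flag in HEPES pH 7.5, MgCl2, GSH, BSA, ±inhibitor, 105 min at 24° C. EDTA stop; Eu-cryptate anti-Flag/XL-APC anti-GST HTRF read after 2 h. Values given as single-concentration % inhibition or IC50.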

[1] = SAE inhibition at compound concentration 0.111 μM
[2] = SAE inhibition, class symbols, legend in nM

recombinant human SAE enzyme, sequence (Q9UBT2 whole entry): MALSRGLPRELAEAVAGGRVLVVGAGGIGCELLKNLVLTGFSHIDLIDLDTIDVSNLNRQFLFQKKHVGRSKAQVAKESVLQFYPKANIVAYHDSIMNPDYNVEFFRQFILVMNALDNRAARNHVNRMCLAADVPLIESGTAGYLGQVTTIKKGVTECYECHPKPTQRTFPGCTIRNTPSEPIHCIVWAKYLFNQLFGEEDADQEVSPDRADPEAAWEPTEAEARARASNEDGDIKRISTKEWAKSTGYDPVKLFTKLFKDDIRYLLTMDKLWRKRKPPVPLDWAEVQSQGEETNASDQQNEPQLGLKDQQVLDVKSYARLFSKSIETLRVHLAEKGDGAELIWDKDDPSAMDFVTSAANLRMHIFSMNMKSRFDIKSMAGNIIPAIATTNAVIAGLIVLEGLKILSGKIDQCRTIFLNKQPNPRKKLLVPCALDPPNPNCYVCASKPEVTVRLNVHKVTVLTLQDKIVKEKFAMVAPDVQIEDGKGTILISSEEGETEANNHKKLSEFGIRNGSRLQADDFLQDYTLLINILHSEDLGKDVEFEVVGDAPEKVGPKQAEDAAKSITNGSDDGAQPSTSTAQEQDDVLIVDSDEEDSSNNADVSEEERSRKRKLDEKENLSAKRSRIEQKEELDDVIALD
recombinant human SAE enzyme, sequence (Q9UBE0 whole entry partner): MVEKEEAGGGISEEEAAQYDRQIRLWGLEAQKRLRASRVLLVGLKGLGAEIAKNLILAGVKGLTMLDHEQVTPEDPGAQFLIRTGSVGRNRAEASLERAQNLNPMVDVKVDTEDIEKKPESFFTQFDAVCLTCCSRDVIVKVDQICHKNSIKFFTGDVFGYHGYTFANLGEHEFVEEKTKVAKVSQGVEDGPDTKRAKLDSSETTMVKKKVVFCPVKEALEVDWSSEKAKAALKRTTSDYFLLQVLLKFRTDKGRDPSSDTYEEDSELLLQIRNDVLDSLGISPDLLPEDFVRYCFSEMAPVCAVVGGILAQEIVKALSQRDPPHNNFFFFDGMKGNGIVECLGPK

Row | Compound | Percent Inhibition (Concentration 0.111 μM) | IC50 (class symbols A/B/C) [nM] | inhibition at 0.111 µM (Concentration 0.111 μM) [%] | Percent Inhibition [1] [%] | IC50 [2] [nM]
1 | Cc1sc(C(=O)c2cncnc2N[C@@H]2C[C@H](COS(N)(=O)=O)[C@@H](O)[C@@H]2F)cc1[C@H]1OCCc2ccc(Cl)cc21 (mixture of isomers) [I-264, [(1R,2R,3R,4R)-4-{[5-({4-[(1S)-7-chloro-3,4-dihydro-1H-isochromen-1-yl]-5-methyl-2-thienyl}carbonyl)pyrimidin-4-yl]amino}-3-fluoro-2-hydroxycyclopentyl]methyl sulfamate and [(1R,2R,3R,4R)-4-{[5-({4-[(1R)-7-chloro-3,4-dihydro-1H-isochromen-1-yl]-5-methyl-2-thienyl}carbonyl)pyrimidin-4-yl]amino}-3-fluoro-2-hydroxycyclopentyl]methyl sulfamate] | 100 | < 10 |  |  | 
2 | NS(=O)(=O)OC[C@H]1C[C@@H](Nc2ncncc2C(=O)c2cc(Cn3cnc4ccccc43)cs2)C[C@@H]1O [I-192, {(1R,2S,4R)-4-[(5-{[4-(1H-benzimidazol-1-ylmethyl)-2-thienyl]carbonyl}pyrimidin-4-yl)amino]-2-hydroxycyclopentyl}methyl sulfamate] |  | 10 to 100 | 66 |  | 
3 | Cc1cc2n(n1)CCO[C@H]2c1csc(C(=O)c2cncnc2N[C@@H]2C[C@H](COS(N)(=O)=O)[C@@H](O)C2)c1 (mixture of isomers) [I-332, [(1R,2S,4R)-2-hydroxy-4-{[5-({4-[(4S)-2-methyl-6,7-dihydro-4H-pyrazolo[5,1-c][1,4]oxazin-4-yl]-2-thienyl}carbonyl)pyrimidin-4-yl]amino}cyclopentyl]methyl sulfamate and [(1R,2S,4R)-2-hydroxy-4-{[5-({4-[(4R)-2-methyl-6,7-dihydro-4H-pyrazolo[5,1-c][1,4]oxazin-4-yl]-2-thienyl}carbonyl)pyrimidin-4-yl]amino}cyclopentyl]methyl sulfamate] |  |  |  | 25 | 100 to 1000
4 | [(1R,2S,4R)-4-{[5-({4-[(1R)-7-bromo-1,2,3,4-tetrahydroisoquinolin-1-yl]-5-chloro-2-thienyl}carbonyl)pyrimidin-4-yl]amino}-2-hydroxycyclopentyl]methyl sulfamate and [(1R,2S,4R)-4-{[5-({4-[(1S)-7-bromo-1,2,3,4-tetrahydroisoquinolin-1-yl]-5-chloro-2-thienyl}carbonyl)pyrimidin-4-yl]amino}-2-hydroxycyclopentyl]methyl sulfamate [I-251] | 100 | < 10 |  |  | 
5 | C[C@](O)(c1csc(C(=O)c2cncnc2N[C@@H]2C[C@H](COS(N)(=O)=O)[C@@H](O)[C@H]2O)c1)c1cccc(Br)n1 (single isomer, unassigned) [I-1b, [(1R,2R,3S,4R)-4-{[5-({4-[(1S)-1-(6-bromopyridin-2-yl)-1-hydroxyethyl]-2-thienyl}carbonyl)pyrimidin-4-yl]amino}-2,3-dihydroxycyclopentyl]methyl sulfamate or [(1R,2R,3S,4R)-4-{[5-({4-[(1R)-1-(6-bromopyridin-2-yl)-1-hydroxyethyl]-2-thienyl}carbonyl)pyrimidin-4-yl]amino}-2,3-dihydroxycyclopentyl]methyl sulfamate] | 100 | < 10 |  |  | 
6 | Cc1sc(C(=O)c2cncnc2N[C@@H]2C[C@H](COS(N)(=O)=O)[C@@H](O)C2)cc1[C@@H]1c2cc(Cl)ccc2CCN1C [I-306, [(1R,2S,4R)-4-[[5-[4-[(1R)-7-Chloro-2-methyl-3,4-dihydro-1H-isoquinolin-1-yl]-5-methyl-thiophene-2-carbonyl]pyrimidin-4-yl]amino]-2-hydroxy-cyclopentyl]methyl sulfamate and 2-carbonyl]pyrimidin-4-yl]amino]-2-hydroxy-cyclopentyl]methyl sulfamate] |  |  |  | 98 | < 10
7 | NS(=O)(=O)OC[C@H]1C[C@@H](Nc2ncncc2C(=O)c2cc(Cc3ccc(Cl)c(Cl)c3)cs2)C[C@@H]1O [I-104, {(1R,2S,4R)-4-[(5-{[4-(3,4-Dichlorobenzyl)-2-thienyl]carbonyl}pyrimidin-4-yl)amino]-2-hydroxycyclopentyl)methyl sulfamate] |  | < 10 | 97 |  | 
